Here are results for three compounds from article PMC10682951, “Structure-function and rational design of a spider toxin Ssp1a at human voltage-gated sodium channel subtypes” (Frontiers in Pharmacology, 2023).

Holding throughout (format): cell-based
For assay [1], the target named is T1, hNaV1.2 (Homo sapiens, UniProt Q99250).
T1 construct: host or cells: HEK293
In words: Automated whole-cell patch-clamp (QPatch 16X), hNaV1.2. The note with it: for IC50: HEK293 cells expressing hNaV1.2 + β1 subunit, QPatch 16X, holding −80 mV, step to 0 mV, peptide incubated 2 min, 0.1% BSA, mean, SEM and n (2-7). The method in brief: (§1)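 HEK293 cells stably expressing the channel (human subtypes with β1 subunit), held at −80 mV; 2 min peptide pre-incubation, then 20 ms steps to 0 mV after a 200 ms −120 mV conditioning pulse. Extracellular pH 7.3 with 20 mM TEA-Cl, CsF-based pipette solution, 0.1% BSA; IC50 from four-parameter Hill fit.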
For orientation: In patch-clamp work, channel activity is measured electrically.

The target of assay [2] is T2, hNaV1.3 (Homo sapiens, UniProt Q9NY46).
T2 construct: host or cells: HEK293
In words: Automated whole-cell patch-clamp (QPatch 16X), hNaV1.3. The note with it: HEK293 cells expressing hNaV1.3 + β1 subunit; QPatch 16X; holding −80 mV, step to 0 mV; peptide incubated 2 min; 0.1% BSA; mean, SEM and n (3-12). The method in brief: as §1

Assay [3] has as its target T3, hNaV1.7 (Homo sapiens, UniProt Q15858).
T3 construct: host or cells: HEK293
In words: Automated whole-cell patch-clamp (QPatch 16X), hNaV1.7. The note with it: for IC50: HEK293 cells expressing hNaV1.7 + β1 subunit, QPatch 16X, holding −80 mV, step to 0 mV, peptide incubated 2 min, 0.1% BSA, mean, SEM and n (3-9). The method in brief: as §1

Bridge positions count the residues as written; N and C are the ends. Peptide text beside a SMILES is read from it.

T2 sequence (Q9NY46 whole entry): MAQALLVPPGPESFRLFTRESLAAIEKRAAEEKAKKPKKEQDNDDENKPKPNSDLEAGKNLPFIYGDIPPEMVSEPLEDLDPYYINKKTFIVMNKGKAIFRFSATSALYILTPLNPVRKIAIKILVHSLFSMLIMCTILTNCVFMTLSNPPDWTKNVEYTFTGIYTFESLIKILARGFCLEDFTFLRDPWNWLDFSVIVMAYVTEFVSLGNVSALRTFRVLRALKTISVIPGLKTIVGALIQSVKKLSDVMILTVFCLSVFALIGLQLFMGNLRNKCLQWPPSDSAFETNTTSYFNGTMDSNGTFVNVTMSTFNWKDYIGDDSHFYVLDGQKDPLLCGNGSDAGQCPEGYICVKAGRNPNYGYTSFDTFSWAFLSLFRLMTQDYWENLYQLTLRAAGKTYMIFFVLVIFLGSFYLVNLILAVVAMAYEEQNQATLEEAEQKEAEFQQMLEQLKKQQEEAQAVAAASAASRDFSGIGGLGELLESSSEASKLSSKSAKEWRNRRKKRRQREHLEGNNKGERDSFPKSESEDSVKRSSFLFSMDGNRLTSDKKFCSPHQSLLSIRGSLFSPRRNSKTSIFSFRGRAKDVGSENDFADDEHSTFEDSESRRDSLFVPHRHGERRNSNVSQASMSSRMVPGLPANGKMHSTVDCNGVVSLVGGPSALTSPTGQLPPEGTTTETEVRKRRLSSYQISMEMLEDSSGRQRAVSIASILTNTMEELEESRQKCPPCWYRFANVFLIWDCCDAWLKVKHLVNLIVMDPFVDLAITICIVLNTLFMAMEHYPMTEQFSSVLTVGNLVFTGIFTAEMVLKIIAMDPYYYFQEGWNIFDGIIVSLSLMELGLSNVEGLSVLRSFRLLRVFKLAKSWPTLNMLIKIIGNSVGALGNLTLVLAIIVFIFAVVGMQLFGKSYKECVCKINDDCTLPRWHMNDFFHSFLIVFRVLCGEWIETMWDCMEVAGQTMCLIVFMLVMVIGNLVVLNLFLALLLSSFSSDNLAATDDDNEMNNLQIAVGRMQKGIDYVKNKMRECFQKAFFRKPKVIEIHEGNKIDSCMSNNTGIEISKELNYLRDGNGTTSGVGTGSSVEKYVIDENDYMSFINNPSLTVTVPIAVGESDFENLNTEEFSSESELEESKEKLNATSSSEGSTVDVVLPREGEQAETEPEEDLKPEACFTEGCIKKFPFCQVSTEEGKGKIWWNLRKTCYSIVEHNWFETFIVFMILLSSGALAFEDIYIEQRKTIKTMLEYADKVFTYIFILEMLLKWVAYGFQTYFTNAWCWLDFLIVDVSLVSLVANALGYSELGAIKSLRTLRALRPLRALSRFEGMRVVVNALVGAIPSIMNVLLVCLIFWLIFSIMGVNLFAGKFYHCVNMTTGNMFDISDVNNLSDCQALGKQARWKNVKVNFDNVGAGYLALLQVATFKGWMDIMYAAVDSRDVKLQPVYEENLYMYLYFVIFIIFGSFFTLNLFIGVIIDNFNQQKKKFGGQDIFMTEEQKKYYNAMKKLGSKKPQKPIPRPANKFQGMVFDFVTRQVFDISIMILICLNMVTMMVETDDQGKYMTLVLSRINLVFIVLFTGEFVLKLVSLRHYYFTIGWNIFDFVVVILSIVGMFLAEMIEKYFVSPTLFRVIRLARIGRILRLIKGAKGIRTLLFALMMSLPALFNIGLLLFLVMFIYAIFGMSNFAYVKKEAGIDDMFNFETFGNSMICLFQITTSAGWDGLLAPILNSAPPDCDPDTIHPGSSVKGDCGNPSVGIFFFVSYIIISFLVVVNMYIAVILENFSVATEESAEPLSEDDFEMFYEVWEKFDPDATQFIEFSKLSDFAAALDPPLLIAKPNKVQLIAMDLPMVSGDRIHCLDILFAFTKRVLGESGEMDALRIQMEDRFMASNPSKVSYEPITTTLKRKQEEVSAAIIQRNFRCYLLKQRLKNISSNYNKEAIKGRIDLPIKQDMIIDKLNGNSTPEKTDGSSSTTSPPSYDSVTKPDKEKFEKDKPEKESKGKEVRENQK
T2 sequence (Q07699 19-218, further chain): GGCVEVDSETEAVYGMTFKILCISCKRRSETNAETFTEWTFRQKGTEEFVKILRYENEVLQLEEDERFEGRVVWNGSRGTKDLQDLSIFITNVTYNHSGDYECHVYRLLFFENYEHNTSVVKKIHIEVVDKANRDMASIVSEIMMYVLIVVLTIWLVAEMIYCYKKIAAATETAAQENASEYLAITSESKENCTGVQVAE
T1 sequence (Q07699 19-218): as the sequence (Q07699 19-218, further chain) above
T1 sequence (Q99250 whole entry): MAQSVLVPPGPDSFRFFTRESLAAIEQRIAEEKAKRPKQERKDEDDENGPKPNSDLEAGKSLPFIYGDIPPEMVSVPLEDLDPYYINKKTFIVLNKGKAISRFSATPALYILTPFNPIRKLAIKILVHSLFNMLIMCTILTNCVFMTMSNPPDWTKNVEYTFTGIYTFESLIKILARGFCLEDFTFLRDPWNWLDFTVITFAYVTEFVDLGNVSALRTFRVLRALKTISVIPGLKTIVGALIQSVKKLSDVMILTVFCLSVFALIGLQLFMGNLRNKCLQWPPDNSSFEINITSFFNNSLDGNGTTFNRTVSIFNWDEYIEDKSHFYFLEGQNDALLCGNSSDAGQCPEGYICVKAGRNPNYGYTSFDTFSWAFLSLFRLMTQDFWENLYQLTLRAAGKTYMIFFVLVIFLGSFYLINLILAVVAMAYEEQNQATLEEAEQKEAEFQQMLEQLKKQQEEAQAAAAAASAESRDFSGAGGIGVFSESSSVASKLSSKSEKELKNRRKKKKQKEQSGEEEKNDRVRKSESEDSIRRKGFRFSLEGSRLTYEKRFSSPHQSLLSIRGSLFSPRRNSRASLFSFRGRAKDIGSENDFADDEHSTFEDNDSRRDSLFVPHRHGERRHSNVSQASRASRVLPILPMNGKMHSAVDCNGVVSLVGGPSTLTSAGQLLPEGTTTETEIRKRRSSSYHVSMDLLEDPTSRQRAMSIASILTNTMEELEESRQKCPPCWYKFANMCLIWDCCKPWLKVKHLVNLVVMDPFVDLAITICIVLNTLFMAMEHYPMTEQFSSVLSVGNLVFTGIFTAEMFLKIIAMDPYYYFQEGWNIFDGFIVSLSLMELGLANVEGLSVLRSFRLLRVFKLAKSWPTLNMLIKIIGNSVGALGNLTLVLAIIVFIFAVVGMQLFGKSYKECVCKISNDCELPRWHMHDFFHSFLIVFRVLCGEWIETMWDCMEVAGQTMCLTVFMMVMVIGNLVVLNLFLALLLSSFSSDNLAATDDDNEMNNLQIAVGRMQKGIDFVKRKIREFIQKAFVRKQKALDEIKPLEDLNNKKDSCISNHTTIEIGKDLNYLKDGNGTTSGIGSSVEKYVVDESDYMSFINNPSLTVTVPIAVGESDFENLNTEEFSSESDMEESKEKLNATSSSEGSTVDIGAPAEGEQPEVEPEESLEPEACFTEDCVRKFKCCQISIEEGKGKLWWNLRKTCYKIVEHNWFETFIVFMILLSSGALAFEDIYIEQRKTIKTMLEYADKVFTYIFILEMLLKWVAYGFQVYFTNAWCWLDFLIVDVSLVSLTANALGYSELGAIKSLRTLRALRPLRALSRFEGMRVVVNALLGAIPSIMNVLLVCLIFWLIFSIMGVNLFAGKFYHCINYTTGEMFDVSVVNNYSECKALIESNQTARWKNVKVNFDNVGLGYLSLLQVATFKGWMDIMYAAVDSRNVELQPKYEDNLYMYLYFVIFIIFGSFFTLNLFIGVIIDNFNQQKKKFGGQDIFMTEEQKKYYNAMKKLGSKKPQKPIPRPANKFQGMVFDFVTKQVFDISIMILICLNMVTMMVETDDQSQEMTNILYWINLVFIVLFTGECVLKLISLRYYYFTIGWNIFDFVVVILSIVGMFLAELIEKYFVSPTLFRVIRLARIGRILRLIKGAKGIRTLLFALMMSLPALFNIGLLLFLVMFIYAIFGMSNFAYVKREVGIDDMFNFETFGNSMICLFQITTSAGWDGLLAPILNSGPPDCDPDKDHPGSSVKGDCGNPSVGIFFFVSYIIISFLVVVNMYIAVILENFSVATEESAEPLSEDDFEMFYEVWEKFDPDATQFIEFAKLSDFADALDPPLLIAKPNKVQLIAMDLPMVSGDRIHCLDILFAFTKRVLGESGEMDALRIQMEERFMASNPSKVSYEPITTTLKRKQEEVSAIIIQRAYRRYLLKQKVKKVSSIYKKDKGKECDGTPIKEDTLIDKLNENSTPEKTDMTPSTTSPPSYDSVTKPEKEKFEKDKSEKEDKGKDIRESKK

Usually IC50 stands for the concentration at which inhibition is half-maximal. With `CC(C)C[C@H](NC(=O)[C@H](CC(=O)O)NC(=O)[C@H](Cc1ccc(O)cc1)NC(=O)[C@H](CCCNC(=N)N)NC(=O)[C@@H]1CSSC[C@@H]2NC(=O)[C@H](CCCCN)NC(=O)[C@H](CC(N)=O)NC(=O)[C@H](CC(N)=O)NC(=O)[C@H](CC(N)=O)NC(=O)[C@@H]3CCCN3C(=O)[C@H](CC(=O)O)NC(=O)[C@@H]3CSSC[C@H](NC(=O)[C@H](C(C)C)NC(=O)[C@H](Cc4ccc(O)cc4)NC(=O)CNC(=O)[C@H](CCC(=O)O)NC(=O)[C@H](CSSC[C@H](NC(=O)[C@H](CC(=O)O)NC(=O)CN)C(=O)N[C@@H](CC(C)C)C(=O)NCC(=O)N[C@@H](Cc4c[nH]c5ccccc45)C(=O)N[C@@H](Cc4ccccc4)C(=O)N[C@@H](CO)C(=O)NCC(=O)N3)NC2=O)C(=O)N[C@@H](Cc2c[nH]cn2)C(=O)N[C@@H](Cc2c[nH]c3ccccc23)C(=O)N[C@@H](C)C(=O)N[C@@H](Cc2ccc(O)cc2)C(=O)N2CCC[C@H]2C(=O)N[C@@H](Cc2c[nH]c3ccccc23)C(=O)N1)C(=O)O` [K25A] (H-GDCLGWFSGCDPNNNKCCEGYVCHWAYPWCRYDL-OH; disulfide 3-18, 10-23, 17-30 (inferred); N-terminus and C-terminus assumed), the IC50 in assay [1], in assay [2] and in assay [3] was more than 1 µM each time. Moreover, in assay [1] (relative to wild type rSsp1a), the “Loss (reduction) in potency vs rSsp1a at hNaV1.2” value is not below 10 fold. Also, the “Loss (reduction) in potency vs rSsp1a at hNaV1.7” value in assay [3] (relative to wild type rSsp1a) is not below 10 fold.
As for `CC(C)C[C@H](NC(=O)[C@H](CC(=O)O)NC(=O)[C@H](Cc1ccc(O)cc1)NC(=O)[C@H](CCCNC(=N)N)NC(=O)[C@@H]1CSSC[C@@H]2NC(=O)[C@H](CCCCN)NC(=O)[C@H](CC(N)=O)NC(=O)[C@H](CC(N)=O)NC(=O)[C@H](CC(N)=O)NC(=O)[C@@H]3CCCN3C(=O)[C@H](CC(=O)O)NC(=O)[C@@H]3CSSC[C@H](NC(=O)[C@H](C(C)C)NC(=O)[C@H](Cc4ccc(O)cc4)NC(=O)CNC(=O)[C@H](CCC(=O)O)NC(=O)[C@H](CSSC[C@H](NC(=O)[C@H](CC(=O)O)NC(=O)CN)C(=O)N[C@@H](C)C(=O)NCC(=O)N[C@@H](Cc4c[nH]c5ccccc45)C(=O)N[C@@H](Cc4ccccc4)C(=O)N[C@@H](CO)C(=O)NCC(=O)N3)NC2=O)C(=O)N[C@@H](Cc2c[nH]cn2)C(=O)N[C@@H](Cc2c[nH]c3ccccc23)C(=O)N[C@@H](CCCCN)C(=O)N[C@@H](Cc2ccc(O)cc2)C(=O)N2CCC[C@H]2C(=O)N[C@@H](Cc2c[nH]c3ccccc23)C(=O)N1)C(=O)O` [L3A], the values for the IC50 in assay [1], in assay [2] and in assay [3] were 0.154 µM, 0.311 µM and 0.17 µM, respectively.
On to `CC(C)C[C@@H]1NC(=O)[C@@H](NC(=O)[C@H](CC(=O)O)NC(=O)CN)CSSC[C@@H]2NC(=O)[C@@H]3CSSC[C@@H](C(=O)N[C@@H](CCCNC(=N)N)C(=O)N[C@@H](Cc4ccc(O)cc4)C(=O)N[C@@H](CC(=O)O)C(=O)N[C@@H](C)C(=O)O)NC(=O)[C@H](Cc4c[nH]c5ccccc45)NC(=O)[C@@H]4CCCN4C(=O)[C@H](Cc4ccc(O)cc4)NC(=O)[C@H](CCCCN)NC(=O)[C@H](Cc4c[nH]c5ccccc45)NC(=O)[C@H](Cc4c[nH]cn4)NC(=O)[C@H](CSSC[C@H](NC(=O)CNC(=O)[C@H](CO)NC(=O)[C@H](Cc4ccccc4)NC(=O)[C@H](Cc4c[nH]c5ccccc45)NC(=O)CNC1=O)C(=O)N[C@@H](CC(=O)O)C(=O)N1CCC[C@H]1C(=O)N[C@@H](CC(N)=O)C(=O)N[C@@H](CC(N)=O)C(=O)N[C@@H](CC(N)=O)C(=O)N[C@@H](CCCCN)C(=O)N3)NC(=O)[C@H](C(C)C)NC(=O)[C@H](Cc1ccc(O)cc1)NC(=O)CNC(=O)[C@H](CCC(=O)O)NC2=O` [L33A], for which the figures for the IC50 in assay [1], in assay [2] and in assay [3] were 0.396 µM, more than 3 µM and 0.448 µM, respectively.
